How the values were obtained:
Format in all cases: binding
Details in all cases: Compound Concentration 10 µM
[1] = molecular target: T1, panel of 442 kinases (Homo sapiens, UniProt O15264)
T1 construct: purchased KINOMEscan
T1 sequence (O15264 1-365): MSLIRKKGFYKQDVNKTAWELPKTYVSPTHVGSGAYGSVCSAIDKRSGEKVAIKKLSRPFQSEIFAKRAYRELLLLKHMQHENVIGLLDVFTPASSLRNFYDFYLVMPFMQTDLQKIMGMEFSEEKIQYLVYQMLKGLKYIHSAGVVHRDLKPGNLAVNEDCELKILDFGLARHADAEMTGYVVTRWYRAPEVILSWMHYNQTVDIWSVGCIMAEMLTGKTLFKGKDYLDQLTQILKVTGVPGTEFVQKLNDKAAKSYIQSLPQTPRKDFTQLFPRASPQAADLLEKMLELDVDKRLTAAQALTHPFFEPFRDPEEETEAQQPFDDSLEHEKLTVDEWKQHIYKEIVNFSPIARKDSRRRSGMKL
Text: (§1) We assessed the selectivity of members of this scaffold using the KINOMEscan methodology across a near comprehensive panel of 442 kinases [[18,27]].

[2] = molecular target: T2, panel of 442 kinases (Homo sapiens, UniProt P50613)
T2 construct: purchased KINOMEscan
T2 sequence (P50613 whole entry): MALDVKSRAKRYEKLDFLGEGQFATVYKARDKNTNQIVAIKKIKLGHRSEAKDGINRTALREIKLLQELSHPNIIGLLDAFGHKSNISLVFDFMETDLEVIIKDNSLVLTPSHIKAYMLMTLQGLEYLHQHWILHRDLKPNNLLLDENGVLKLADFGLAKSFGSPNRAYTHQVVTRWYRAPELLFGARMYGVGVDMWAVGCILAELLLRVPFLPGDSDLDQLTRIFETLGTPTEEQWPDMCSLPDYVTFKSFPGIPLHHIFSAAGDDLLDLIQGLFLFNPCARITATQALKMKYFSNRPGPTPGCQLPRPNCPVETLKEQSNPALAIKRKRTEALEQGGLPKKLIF
Text: as §1

[3] = molecular target: T3, panel of 442 kinases (Homo sapiens, UniProt Q00532)
T3 construct: purchased KINOMEscan
T3 sequence (Q00532 whole entry): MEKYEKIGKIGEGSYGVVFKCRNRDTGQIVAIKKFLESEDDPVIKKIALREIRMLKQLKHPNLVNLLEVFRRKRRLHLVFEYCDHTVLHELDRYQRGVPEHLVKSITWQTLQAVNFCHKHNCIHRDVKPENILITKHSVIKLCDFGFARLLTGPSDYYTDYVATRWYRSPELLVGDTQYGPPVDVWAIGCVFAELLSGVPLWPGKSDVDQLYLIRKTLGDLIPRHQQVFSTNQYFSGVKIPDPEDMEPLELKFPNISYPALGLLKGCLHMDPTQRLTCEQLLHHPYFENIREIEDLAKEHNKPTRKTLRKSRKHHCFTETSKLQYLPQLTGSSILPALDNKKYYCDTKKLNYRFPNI
Text: as §1

Row | Compound | KINOMEscan: p38-delta [1] | KINOMEscan: CDK7 [2] | KINOMEscan: CDKL1 [3]
1 | COc1cc(C(=O)N2CCC(N3CCN(C)CC3)CC2)ccc1Nc1ncc2c(n1)N(C)c1ccccc1C(=O)N2C [15 (LRRK2-IN-1)] | 72 | 86 | 78
2 | COc1cc(C(=O)N2CCC(N3CCN(C)CC3)CC2)ccc1Nc1ncc2c(n1)N(C1CCCC1)c1ccccc1C(=O)N2C [Compound 25, 11-cyclopentyl-2-((2-methoxy-4-(4-(4-methylpiperazin-1-yl)piperidine-1-carbonyl)phenyl)amino)-5-methyl-5H-benzo[e]pyrimido[5,4-b][1,4]diazepin-6(11H)-one] | 100 | 18 | 100
3 | CCOc1cc(C(=O)N2CCC(N3CCN(C)CC3)CC2)ccc1Nc1ncc2c(n1)N(C1CCCC1)c1ccccc1C(=O)N2C [Compound 26] | 100 | 57 | 86

Source: PMC3914206
